According to patent US11180474B2 (BRISTOL-MYERS SQUIBB COMPANY, priority 2016, dated 2021):
Counter-ions that a name gives are not always drawn.

Tests used:
human TLR9 = target: T1, human TLR9 (Homo sapiens, UniProt Q9NR96); assay: TLR9 inhibition reporter assay (HEK-Blue cells, SEAP reporter, ODN2006 stimulation); assay type: cell-based; conditions: HEK-Blue cells overexpressing human TLR9, ODN2006 5 nM
T1 construct: host or cells: HEK-Blue cells
T1 sequence (Q9NR96 26-1032): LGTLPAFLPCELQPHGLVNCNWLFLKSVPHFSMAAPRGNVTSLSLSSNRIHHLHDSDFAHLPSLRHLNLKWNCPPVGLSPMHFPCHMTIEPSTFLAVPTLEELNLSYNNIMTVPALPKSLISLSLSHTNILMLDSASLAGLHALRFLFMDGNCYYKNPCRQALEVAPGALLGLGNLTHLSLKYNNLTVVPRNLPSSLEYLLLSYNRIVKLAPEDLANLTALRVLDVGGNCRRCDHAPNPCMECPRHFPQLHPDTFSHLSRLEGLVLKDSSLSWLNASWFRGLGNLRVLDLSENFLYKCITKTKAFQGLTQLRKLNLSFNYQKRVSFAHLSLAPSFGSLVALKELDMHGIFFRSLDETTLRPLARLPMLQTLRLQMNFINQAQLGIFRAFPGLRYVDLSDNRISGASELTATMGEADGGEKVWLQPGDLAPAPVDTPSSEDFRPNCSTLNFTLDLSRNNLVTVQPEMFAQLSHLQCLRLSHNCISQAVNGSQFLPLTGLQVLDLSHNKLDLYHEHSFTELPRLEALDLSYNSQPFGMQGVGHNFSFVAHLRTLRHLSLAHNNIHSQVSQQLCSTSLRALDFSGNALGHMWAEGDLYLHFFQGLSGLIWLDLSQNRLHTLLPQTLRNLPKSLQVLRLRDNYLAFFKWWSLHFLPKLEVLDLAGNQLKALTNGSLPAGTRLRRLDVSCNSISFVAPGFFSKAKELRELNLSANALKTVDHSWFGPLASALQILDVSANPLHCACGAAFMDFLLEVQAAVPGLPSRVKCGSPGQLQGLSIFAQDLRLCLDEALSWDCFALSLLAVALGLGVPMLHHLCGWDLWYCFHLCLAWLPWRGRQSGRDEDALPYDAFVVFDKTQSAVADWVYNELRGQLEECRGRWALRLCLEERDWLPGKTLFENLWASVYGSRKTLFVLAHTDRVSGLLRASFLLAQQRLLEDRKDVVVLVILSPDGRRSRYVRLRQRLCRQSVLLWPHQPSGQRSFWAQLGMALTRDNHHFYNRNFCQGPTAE
Summary of the method: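 Human TLR7/8/9 HEK-Blue reporter lines; dose range 0.05 nM–50 μM; 30 min RT preincubation; stimulus gardiquimod 7.5 μM / R848 15.9 μM / ODN2006 5 nM respectively; 22 h, 37 °C; SEAP detected colorimetrically.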

human TLR7 = target: T2, human TLR7 (Homo sapiens, UniProt Q9NYK1); assay: TLR7 inhibition reporter assay (HEK-Blue cells, SEAP reporter, gardiquimod stimulation); assay type: cell-based; conditions: HEK-Blue cells overexpressing human TLR7, gardiquimod 7.5 μM
T2 construct: host or cells: HEK-Blue cells
T2 sequence (Q9NYK1 27-1049): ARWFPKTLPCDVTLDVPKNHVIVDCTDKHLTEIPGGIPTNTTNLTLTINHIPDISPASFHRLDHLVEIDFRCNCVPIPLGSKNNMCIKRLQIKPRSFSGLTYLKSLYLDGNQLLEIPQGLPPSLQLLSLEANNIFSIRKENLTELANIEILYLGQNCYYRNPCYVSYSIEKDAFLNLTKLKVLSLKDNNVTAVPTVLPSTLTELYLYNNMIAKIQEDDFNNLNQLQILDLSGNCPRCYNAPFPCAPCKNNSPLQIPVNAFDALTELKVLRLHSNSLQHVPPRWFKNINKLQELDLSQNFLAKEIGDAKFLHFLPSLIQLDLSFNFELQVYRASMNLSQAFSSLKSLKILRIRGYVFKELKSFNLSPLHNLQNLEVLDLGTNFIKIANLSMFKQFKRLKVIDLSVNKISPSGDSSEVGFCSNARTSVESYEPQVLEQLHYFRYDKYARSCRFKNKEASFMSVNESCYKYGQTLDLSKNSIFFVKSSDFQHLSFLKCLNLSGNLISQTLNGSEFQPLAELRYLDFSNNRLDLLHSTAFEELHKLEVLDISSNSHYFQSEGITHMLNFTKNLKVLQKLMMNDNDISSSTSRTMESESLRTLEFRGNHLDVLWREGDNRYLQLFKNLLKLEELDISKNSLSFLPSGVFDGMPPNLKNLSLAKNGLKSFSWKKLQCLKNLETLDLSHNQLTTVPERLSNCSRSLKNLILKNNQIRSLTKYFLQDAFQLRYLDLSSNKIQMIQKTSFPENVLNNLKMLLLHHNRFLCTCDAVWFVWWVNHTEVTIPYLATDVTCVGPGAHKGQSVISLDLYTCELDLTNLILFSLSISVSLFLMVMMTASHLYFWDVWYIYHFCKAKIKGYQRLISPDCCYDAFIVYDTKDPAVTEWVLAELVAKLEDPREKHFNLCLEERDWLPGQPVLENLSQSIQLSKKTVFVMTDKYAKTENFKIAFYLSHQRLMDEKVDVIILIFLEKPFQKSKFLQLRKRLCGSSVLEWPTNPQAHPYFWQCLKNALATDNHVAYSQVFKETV
Summary of the method: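 Cells (15000/well for TLR7, 20,000 for TLR8) were treated with compounds over 0.05 nM-50 μM final. After 22 h at 37° C, 5% CO2, SEAP was measured with HEK-Blue Detection reagent; percent inhibition was taken as reduction of agonist-plus-DMSO signal relative to a known inhibitor.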

IC50 (human TLR9) [nM] | IC50 (human TLR7) [nM] | Structure (SMILES)
2840 | 71 | CCc1c(-c2ccc(OC)c(OC)c2)[nH]c2ccc(C3CCN(C(=O)CNCC(C)O)CC3)cc12 (stereo not drawn) [Example 157, 1-(4-(2-(3,4-dimethoxyphenyl)-3-ethyl-1H-indol-5-yl)piperidin-1-yl)-2-((2-hydroxypropyl)amino)ethan-1-one]
1940 | 191 | COc1ccc(-c2[nH]c3ccc(C4CCN(Cc5ccc(N(C)C)cc5)CC4)cc3c2C(C)C)cc1OC [Example 270, 4-((4-(2-(3,4-dimethoxyphenyl)-3-isopropyl-1H-indol-5-yl)piperidin-1-yl)methyl)-N,N-dimethylaniline]
1080 | ≥ 50000 | CCOC(=O)N1CCC(N2CCC(c3ccc4[nH]c(-c5ccc(OC)c(OC)c5)c(C)c4c3)CC2)C1 (stereo not drawn) [Example 13, ethyl 3-(4-(2-(3,4-dimethoxyphenyl)-3-methyl-1H-indol-5-yl)piperidin-1-yl) pyrrolidine-1-carboxylate]
217 | 409 | COc1ccc(-c2[nH]c3ccc(C4CCN(C5CCN(CCC(C)O)CC5)CC4)cc3c2C)cc1OC (stereo not drawn) [Example 56, 4-(4-(2-(3,4-dimethoxyphenyl)-3-methyl-1H-indol-5-yl)-[1,4′-bipiperidin]-1′-yl)butan-2-ol]
≥ 50000 | 610 | CCc1c(-c2ccc(OC)c(OC)c2)[nH]c2ccc(C3CCN(C(=O)NC(C)C)CC3)cc12 [Example 182, 4-(2-(3,4-dimethoxyphenyl)-3-ethyl-1H-indol-5-yl)-N-isopropylpiperidine-1-carboxamide]
1050 | 2170 | COc1ccc(-c2[nH]c3ccc(C4CCN(C5CCNC5)CC4)cc3c2C)cc1OC (stereo not drawn) [Example 104, 2-(3,4-dimethoxyphenyl)-3-methyl-5-(1-(pyrrolidin-3-yl)piperidin-4-yl)-1H-indole]
291 | 677 | COc1ccc(-c2[nH]c3ccc(C4CCN(C5CCCN(CC(C)C)C5)CC4)cc3c2C)cc1OC (stereo not drawn) [Example 416, 2-(3,4-dimethoxyphenyl)-5-(1′-isobutyl-[1,3′-bipiperidin]-4-yl)-3-methyl-1H-indole]
3590 | 2480 | COc1ccc(-c2[nH]c3ccc(C4CCN(Cc5ccnc6ccccc56)CC4)cc3c2C)cc1OC [Example 32, 4-((4-(2-(3,4-dimethoxyphenyl)-3-methyl-1H-indol-5-yl)piperidin-1-yl)methyl)quinoline]
637 | 1050 | COc1ccc(-c2[nH]c3ccc(C4CCN(Cc5ccc(N(C)C)cc5)CC4)cc3c2C)cc1OC [Example 37, 4-((4-(2-(3,4-dimethoxyphenyl)-3-methyl-1H-indol-5-yl)piperidin-1-yl)methyl)-N,N-dimethylaniline]
288 | 1120 | COc1ccc(-c2[nH]c3ccc(C4CCN(CCN(C)CC(C)C)CC4)cc3c2C)cc1OC [Example 110, N-(2-(4-(2-(3,4-dimethoxyphenyl)-3-methyl-1H-indol-5-yl)piperidin-1-yl)ethyl)-N,2-dimethylpropan-1-amine]
97 | 537 | CCC(C)N1CCC(N2CCC(c3ccc4[nH]c(-c5ccc(OC)c(OC)c5)c(C)c4c3)CC2)CC1 (stereo not drawn) [Example 71, 5-(1′-(sec-butyl)-[1,4′-bipiperidin]-4-yl)-2-(3,4-dimethoxyphenyl)-3-methyl-1H-indole]
678 | 219 | CCc1c(-c2ccc(OC)c(OC)c2)[nH]c2ccc(C3CCN(C(=O)CN4CCC(N5CCCCC5)CC4)CC3)cc12 [Example 158, 2-([1,4′-bipiperidin]-1′-yl)-1-(4-(2-(3,4-dimethoxyphenyl)-3-ethyl-1H-indol-5-yl)piperidin-1-yl)ethan-1-one]
251 | 1980 | COc1ccc(-c2[nH]c3ccc(C4CCN(Cc5ccc(-n6ccnc6)cc5)CC4)cc3c2C)cc1OC [Example 39, 5-(1-(4-(1H-imidazol-1-yl)benzyl)piperidin-4-yl)-2-(3,4-dimethoxyphenyl)-3-methyl-1H-indole]
347 | 673 | COc1ccc(-c2[nH]c3ccc(C4CCN(Cc5ccc(-n6cncn6)cc5)CC4)cc3c2C)cc1OC [Example 34, 5-(1-(4-(1H-1,2,4-triazol-1-yl)benzyl)piperidin-4-yl)-2-(3,4-dimethoxyphenyl)-3-methyl-1H-indole]
1640 | 300 | COc1ccc(-c2[nH]c3ccc(C4CCNCC4)cc3c2C2CCOCC2)cc1OC [Example 389, 2-(3,4-dimethoxyphenyl)-5-(piperidin-4-yl)-3-(tetrahydro-2H-pyran-4-yl)-1H-indole]
206 | 985 | COc1ccc(-c2[nH]c3ccc(C4CCN(C5CCNCC5)CC4)cc3c2C)cc1OC [Example 2, 5-([1,4′-bipiperidin]-4-yl)-2-(3,4-dimethoxyphenyl)-3-methyl-1H-indole dihydrochloride]
2010 | 512 | COc1ccc(-c2[nH]c3ccc(C4CCN(Cc5cncn5C)CC4)cc3c2C)cc1OC [Example 40, 2-(3,4-dimethoxyphenyl)-3-methyl-5-(1-((1-methyl-1H-imidazol-5-yl)methyl)piperidin-4-yl)-1H-indole]
1110 | 1160 | COc1ccc(-c2[nH]c3ccc(C4CCN(C5CC(C)(C)N(C)C(C)(C)C5)CC4)cc3c2C)cc1OC [Example 22, 2-(3,4-dimethoxyphenyl)-3-methyl-5-(1′,2′,2′,6′,6′-pentamethyl-[1,4′-bipiperidin]-4-yl)-1H-indole]
190 | 538 | COc1ccc(-c2[nH]c3ccc(C4CCN(C5CCN(C6CCN(C)CC6)CC5)CC4)cc3c2C)cc1OC [Example 81, 2-(3,4-dimethoxyphenyl)-3-methyl-5-(1″-methyl-[1,4′:1′,4″-terpiperidin]-4-yl)-1H-indole]
225 | 347 | COc1ccc(-c2[nH]c3ccc(C4CCN(Cc5ccc6cnccc6c5)CC4)cc3c2C)cc1OC [Example 31, 6-((4-(2-(3,4-dimethoxyphenyl)-3-methyl-1H-indol-5-yl)piperidin-1-yl)methyl)isoquinoline]
5170 | 107 | CCc1c(-c2ccc(OC)c(OC)c2)[nH]c2ccc(C3CCN(C(=O)CNC(CO)CO)CC3)cc12 [Example 165, 2-((1,3-dihydroxypropan-2-yl)amino)-1-(4-(2-(3,4-dimethoxyphenyl)-3-ethyl-1H-indol-5-yl)piperidin-1-yl)ethan-1-one]
